# Test results published in PMC6943732, “The Disulfide Stress Response and Protein S-thioallylation Caused by Allicin and Diallyl Polysulfanes in Bacillus subtilis as Revealed by Transcriptomics and Proteomics” (Antioxidants, 2019).
# Tests used:
# Format in all cases: cell-based
# YxjG = molecular target: T1, YxjG (Bacillus subtilis, UniProt P42318); experiment: shotgun Orbitrap LC-MS/MS of S-thioallylated Cys peptides (+[…] Da); conditions: covalent, redox-sensitive Cys
# T1 construct: native, in treated cells, shotgun proteomics of tryptic peptides
# T1 sequence (P42318 1-378): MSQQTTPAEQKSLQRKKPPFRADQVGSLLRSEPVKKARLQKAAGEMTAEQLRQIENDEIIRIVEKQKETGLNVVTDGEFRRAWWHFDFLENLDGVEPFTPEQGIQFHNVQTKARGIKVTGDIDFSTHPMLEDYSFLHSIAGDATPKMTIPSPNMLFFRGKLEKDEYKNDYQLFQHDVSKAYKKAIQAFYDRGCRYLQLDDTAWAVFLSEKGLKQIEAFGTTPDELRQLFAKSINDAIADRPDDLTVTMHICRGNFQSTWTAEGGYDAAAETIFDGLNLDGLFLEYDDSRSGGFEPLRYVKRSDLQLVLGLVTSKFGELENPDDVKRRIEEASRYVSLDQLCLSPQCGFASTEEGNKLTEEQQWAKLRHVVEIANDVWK
# SerA = molecular target: T2, SerA (Bacillus subtilis, UniProt P35136); experiment: as above; conditions: covalent, redox-sensitive Cys
# T2 construct: native, in treated cells, shotgun proteomics of tryptic peptides
# T2 sequence (P35136 1-525): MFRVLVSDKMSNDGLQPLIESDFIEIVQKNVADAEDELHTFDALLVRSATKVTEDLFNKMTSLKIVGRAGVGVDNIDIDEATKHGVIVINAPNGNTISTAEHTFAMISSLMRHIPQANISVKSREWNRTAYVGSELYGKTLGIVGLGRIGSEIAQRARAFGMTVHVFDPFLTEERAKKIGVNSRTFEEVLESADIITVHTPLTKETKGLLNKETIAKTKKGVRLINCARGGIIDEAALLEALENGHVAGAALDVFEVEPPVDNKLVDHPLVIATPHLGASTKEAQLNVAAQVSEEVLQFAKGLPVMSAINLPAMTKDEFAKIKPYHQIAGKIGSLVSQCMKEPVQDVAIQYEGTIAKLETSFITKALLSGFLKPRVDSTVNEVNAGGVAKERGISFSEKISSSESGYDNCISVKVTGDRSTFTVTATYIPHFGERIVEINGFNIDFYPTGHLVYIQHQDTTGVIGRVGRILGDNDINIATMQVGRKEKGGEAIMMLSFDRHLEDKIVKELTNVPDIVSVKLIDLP
# GuaB = molecular target: T3, GuaB (Bacillus subtilis, UniProt P21879); experiment: as above; conditions: covalent, active site Cys308
# T3 construct: native, in treated cells, shotgun proteomics of tryptic peptides
# T3 sequence (P21879 whole entry): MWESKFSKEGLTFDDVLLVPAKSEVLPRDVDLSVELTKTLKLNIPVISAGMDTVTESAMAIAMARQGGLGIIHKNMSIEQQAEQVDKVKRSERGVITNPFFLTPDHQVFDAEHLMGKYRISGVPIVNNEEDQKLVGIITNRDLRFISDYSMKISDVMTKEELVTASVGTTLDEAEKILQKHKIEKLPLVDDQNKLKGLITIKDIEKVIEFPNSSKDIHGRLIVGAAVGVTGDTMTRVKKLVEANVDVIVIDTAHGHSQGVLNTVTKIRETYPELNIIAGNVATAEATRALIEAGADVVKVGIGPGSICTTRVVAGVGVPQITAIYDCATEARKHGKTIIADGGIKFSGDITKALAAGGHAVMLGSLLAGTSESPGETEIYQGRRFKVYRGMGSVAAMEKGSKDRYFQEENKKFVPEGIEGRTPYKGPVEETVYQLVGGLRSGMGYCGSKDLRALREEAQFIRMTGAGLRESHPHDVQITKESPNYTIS
# GlnA = molecular target: T4, GlnA (Bacillus subtilis, UniProt P12425); experiment: as above; conditions: covalent
# T4 construct: native, in treated cells, shotgun proteomics of tryptic peptides
# T4 sequence (P12425 2-444): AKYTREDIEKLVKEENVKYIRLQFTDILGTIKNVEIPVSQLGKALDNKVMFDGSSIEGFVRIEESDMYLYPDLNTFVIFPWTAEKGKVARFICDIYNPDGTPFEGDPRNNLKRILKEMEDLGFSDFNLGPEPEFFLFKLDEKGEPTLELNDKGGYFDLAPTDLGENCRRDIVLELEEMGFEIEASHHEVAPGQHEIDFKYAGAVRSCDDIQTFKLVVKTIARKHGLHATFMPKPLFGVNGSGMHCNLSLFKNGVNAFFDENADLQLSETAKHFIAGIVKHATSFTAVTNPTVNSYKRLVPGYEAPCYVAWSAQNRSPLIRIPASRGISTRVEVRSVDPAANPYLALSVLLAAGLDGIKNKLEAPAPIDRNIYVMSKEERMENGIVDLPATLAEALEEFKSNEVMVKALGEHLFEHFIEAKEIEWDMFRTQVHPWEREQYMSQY
# TufA (EF-Tu) = molecular target: T5, TufA (EF-Tu) (Bacillus subtilis, UniProt P33166); experiment: as above; conditions: covalent, Cys83
# T5 construct: gene tuf; native, in treated cells, shotgun proteomics of tryptic peptides
# T5 sequence (P33166 2-396): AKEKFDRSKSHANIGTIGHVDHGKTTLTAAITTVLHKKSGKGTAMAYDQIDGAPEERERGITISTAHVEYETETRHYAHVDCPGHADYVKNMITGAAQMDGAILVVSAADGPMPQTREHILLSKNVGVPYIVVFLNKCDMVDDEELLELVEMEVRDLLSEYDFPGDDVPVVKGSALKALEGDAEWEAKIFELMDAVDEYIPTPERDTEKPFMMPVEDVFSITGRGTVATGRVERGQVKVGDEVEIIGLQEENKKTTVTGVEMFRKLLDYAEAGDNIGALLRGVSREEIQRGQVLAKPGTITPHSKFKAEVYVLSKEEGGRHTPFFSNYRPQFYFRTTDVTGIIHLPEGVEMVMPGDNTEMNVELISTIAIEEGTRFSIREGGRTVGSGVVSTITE
# PpaC = molecular target: T6, PpaC (Bacillus subtilis, UniProt P37487); experiment: as above; conditions: covalent, active site Cys158
# T6 construct: native, in treated cells, shotgun proteomics of tryptic peptides
# T6 sequence (P37487 whole entry): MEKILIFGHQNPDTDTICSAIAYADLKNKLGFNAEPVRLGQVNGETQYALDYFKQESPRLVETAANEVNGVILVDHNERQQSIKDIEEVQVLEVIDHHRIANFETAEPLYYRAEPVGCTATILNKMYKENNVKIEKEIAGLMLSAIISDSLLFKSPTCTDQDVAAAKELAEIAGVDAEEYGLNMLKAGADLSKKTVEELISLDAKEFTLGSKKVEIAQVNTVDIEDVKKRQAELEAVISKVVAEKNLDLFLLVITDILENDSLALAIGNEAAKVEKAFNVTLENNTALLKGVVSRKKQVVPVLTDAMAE
# MetE = molecular target: T7, MetE (Bacillus subtilis, UniProt P80877); experiment: as above; conditions: covalent, Cys719/Cys730
# T7 construct: native, in treated cells, shotgun proteomics of tryptic peptides
# T7 sequence (P80877 2-762): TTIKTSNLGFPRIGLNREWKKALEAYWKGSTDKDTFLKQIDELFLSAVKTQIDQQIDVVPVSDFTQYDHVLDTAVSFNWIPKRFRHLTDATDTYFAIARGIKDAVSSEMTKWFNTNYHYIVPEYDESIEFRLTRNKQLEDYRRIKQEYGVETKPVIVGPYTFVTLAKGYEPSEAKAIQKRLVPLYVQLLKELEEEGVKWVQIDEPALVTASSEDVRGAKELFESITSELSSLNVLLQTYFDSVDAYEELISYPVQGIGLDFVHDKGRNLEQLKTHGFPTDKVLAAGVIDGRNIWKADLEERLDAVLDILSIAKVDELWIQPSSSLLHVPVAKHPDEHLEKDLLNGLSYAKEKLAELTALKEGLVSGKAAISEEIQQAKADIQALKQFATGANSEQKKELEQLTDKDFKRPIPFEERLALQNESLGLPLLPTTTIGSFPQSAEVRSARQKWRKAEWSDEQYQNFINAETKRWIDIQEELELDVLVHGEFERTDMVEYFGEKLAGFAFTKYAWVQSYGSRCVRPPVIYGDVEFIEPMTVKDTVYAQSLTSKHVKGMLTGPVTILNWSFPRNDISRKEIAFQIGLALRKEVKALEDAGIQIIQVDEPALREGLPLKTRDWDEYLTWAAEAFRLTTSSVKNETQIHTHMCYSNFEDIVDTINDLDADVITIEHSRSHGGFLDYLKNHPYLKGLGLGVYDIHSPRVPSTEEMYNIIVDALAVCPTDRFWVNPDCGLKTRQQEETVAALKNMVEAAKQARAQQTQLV
# FusA (EF-G) = molecular target: T8, FusA (EF-G) (Bacillus subtilis, UniProt P80868); experiment: as above; conditions: covalent, Cys239
# T8 construct: native, in treated cells, shotgun proteomics of tryptic peptides
# T8 sequence (P80868 2-692): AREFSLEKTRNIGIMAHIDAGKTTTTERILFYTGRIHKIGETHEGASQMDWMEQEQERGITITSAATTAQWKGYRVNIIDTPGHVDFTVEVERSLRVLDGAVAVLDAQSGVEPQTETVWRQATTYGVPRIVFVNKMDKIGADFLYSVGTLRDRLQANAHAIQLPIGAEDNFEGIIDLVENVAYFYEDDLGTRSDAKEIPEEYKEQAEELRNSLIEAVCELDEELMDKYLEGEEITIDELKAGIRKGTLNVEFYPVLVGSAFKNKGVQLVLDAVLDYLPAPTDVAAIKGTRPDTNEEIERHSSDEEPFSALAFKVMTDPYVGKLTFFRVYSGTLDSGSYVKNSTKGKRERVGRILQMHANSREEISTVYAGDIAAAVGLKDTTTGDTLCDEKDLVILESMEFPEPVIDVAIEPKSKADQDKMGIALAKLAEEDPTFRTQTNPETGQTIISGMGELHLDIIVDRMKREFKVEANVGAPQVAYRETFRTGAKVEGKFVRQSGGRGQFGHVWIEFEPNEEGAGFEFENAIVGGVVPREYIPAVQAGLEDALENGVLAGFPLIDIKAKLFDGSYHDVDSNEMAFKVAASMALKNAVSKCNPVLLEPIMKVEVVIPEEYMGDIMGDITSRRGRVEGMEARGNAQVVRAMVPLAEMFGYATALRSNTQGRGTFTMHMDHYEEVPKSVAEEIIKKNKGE
# YodB = molecular target: T9, YodB (Bacillus subtilis, UniProt O34844); experiment: IP and Orbitrap LC-MS/MS of S-thioallylated Cys peptides (+[…] Da); conditions: covalent; allicin-treated cells; Cys101 (Cys6 peptide not identified)
# T9 construct: native, immunoprecipitated with polyclonal antibody from allicin-treated cells
# T9 sequence (O34844 whole entry): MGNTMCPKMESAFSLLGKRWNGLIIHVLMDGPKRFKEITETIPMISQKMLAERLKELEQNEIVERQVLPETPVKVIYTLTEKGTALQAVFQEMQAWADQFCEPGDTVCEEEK
# CatR = molecular target: T10, CatR (Bacillus subtilis, UniProt O32238); experiment: as above; conditions: covalent; allicin-treated cells; Cys7
# T10 construct: gene yvaP; native, immunoprecipitated with polyclonal antibody from allicin-treated cells
# T10 sequence (O32238 1-108): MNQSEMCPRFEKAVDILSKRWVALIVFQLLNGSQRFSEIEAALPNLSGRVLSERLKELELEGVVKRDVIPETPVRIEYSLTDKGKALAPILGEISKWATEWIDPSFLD
# OhrR-FLAG = molecular target: T11, OhrR-FLAG (Bacillus subtilis, UniProt O34777); experiment: as above; conditions: covalent; cells treated with 90 µM allicin, 30 min; Cys15 (b28 names the redox-sensing residue Cys22)
# T11 construct: FLAG-tagged, expressed in B. subtilis, immunoprecipitated from allicin-treated cells
# T11 sequence (O34777 1-147): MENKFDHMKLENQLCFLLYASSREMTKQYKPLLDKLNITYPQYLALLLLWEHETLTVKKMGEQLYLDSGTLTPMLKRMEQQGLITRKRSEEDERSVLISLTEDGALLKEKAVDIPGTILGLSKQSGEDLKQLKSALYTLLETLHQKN
# HypR = molecular target: T12, HypR (Bacillus subtilis, UniProt P37486); experiment: as above; conditions: covalent; allicin-treated cells; Cys14
# T12 construct: gene yybR; native, immunoprecipitated with polyclonal antibody from allicin-treated cells
# T12 sequence (P37486 whole entry): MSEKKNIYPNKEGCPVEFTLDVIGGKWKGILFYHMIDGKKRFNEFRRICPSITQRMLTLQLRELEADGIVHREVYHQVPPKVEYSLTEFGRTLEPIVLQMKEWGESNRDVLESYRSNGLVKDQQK
# [1] = cells treated with 92 µM DAS4, 30 min
# [2] = cells treated with 90 µM allicin, 30 min
Compound,shotgun Orbitrap LC-MS/MS of S-thioallylated Cys peptides (+72 Da) (YxjG; [1]),shotgun Orbitrap LC-MS/MS of S-thioallylated Cys peptides (+72 Da) (SerA; [1]),shotgun Orbitrap LC-MS/MS of S-thioallylated Cys peptides (+72 Da) (GuaB; [1]),shotgun Orbitrap LC-MS/MS of S-thioallylated Cys peptides (+72 Da) (GlnA; [1]),shotgun Orbitrap LC-MS/MS of S-thioallylated Cys peptides (+72 Da) (TufA (EF-Tu); [1]),shotgun Orbitrap LC-MS/MS of S-thioallylated Cys peptides (+72 Da) (PpaC; [1]),shotgun Orbitrap LC-MS/MS of S-thioallylated Cys peptides (+72 Da) (MetE; [1]),shotgun Orbitrap LC-MS/MS of S-thioallylated Cys peptides (+72 Da) (FusA (EF-G); [1]),shotgun Orbitrap LC-MS/MS of S-thioallylated Cys peptides (+72 Da) (YxjG; [2]),shotgun Orbitrap LC-MS/MS of S-thioallylated Cys peptides (+72 Da) (SerA; [2]),shotgun Orbitrap LC-MS/MS of S-thioallylated Cys peptides (+72 Da) (GuaB; [2]),IP and Orbitrap LC-MS/MS of S-thioallylated Cys peptides (+72 Da) (YodB),IP and Orbitrap LC-MS/MS of S-thioallylated Cys peptides (+72 Da) (CatR),IP and Orbitrap LC-MS/MS of S-thioallylated Cys peptides (+72 Da) (OhrR-FLAG),"shotgun Orbitrap LC-MS/MS of S-thioallylated Cys peptides (+72 Da) (GlnA; cells treated with 90 µM allicin, 30 min, conserved Cys)",shotgun Orbitrap LC-MS/MS of S-thioallylated Cys peptides (+72 Da) (TufA (EF-Tu); [2]),shotgun Orbitrap LC-MS/MS of S-thioallylated Cys peptides (+72 Da) (PpaC; [2]),shotgun Orbitrap LC-MS/MS of S-thioallylated Cys peptides (+72 Da) (MetE; [2]),shotgun Orbitrap LC-MS/MS of S-thioallylated Cys peptides (+72 Da) (FusA (EF-G); [2]),IP and Orbitrap LC-MS/MS of S-thioallylated Cys peptides (+72 Da) (HypR)
C=CCSSSSCC=C [DAS4],"TufA, MetE, YxjG, GuaB, SerA, and PpaC were modified at their redox-sensitive Cys residues","SerA, and PpaC were modified at their redox-sensitive Cys residues by allicin and DAS4",GuaB and PpaC were S-thioallylated at their conserved redox-sensing active sites Cys308 and Cys158,"MetE, YxjG, MetI, AroA, ArgJ, CarB, GlnA","modified at their conserved Cys residues, e.g., Cys83 of TufA",pyrophosphatase PpaC were S-thioallylated by allicin and DAS4 in B. subtilis,"Cys239 of FusA, and Cys719/Cys730 of MetE","Cys83 of TufA, Cys239 of FusA",–,–,–,–,–,–,–,–,–,–,–,–
C=CCS[S+]([O-])CC=C (centres unmarked) [allicin],–,–,–,–,–,–,–,–,"TufA, MetE, YxjG, GuaB, SerA, and PpaC were modified at their redox-sensitive Cys residues","SerA, and PpaC were modified at their redox-sensitive Cys residues by allicin and DAS4",GuaB and PpaC were S-thioallylated at their conserved redox-sensing active sites Cys308 and Cys158,"For the YodB-repressor, only Cys101 was S-thioallylated","modified by S-thioallylation for OhrR (Cys15), HypR (Cys14), and CatR (Cys7)","modified by S-thioallylation for OhrR (Cys15), HypR (Cys14), and CatR (Cys7)","MetE, YxjG, MetI, AroA, ArgJ, CarB, GlnA","modified at their conserved Cys residues, e.g., Cys83 of TufA",pyrophosphatase PpaC were S-thioallylated by allicin and DAS4 in B. subtilis,"Cys239 of FusA, and Cys719/Cys730 of MetE","Cys83 of TufA, Cys239 of FusA","modified by S-thioallylation for OhrR (Cys15), HypR (Cys14), and CatR (Cys7)"
